In this assay the target is T1, human mAChR M4 (Homo sapiens, UniProt P08173).
T1 construct: expressed in transfected cells; host or cells: CHO-K1 (ATCC), stably expressing hM4 and Gqi5
T1 sequence (P08173 1-479): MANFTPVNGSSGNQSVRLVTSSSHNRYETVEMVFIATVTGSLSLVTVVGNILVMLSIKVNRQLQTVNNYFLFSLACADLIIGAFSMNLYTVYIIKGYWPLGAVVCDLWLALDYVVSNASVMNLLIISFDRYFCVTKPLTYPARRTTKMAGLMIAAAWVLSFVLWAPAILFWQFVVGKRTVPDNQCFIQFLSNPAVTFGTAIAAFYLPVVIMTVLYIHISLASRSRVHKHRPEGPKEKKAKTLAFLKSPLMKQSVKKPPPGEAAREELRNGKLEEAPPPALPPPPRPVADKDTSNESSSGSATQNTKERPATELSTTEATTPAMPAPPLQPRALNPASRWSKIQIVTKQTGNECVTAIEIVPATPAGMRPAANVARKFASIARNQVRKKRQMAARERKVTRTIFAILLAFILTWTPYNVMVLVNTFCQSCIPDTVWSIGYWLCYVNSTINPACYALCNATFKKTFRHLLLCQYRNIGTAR
As to the kind of experiment: mAChR M4 cell-based functional assay: calcium flux (Fluo-4, FDSS), positive allosteric modulator activity on the EC20 acetylcholine response, hM4-Gqi5 CHO-K1 cells. The conditions noted are these: for Emax at 30 µM: CHO-K1, human M4, % ACh maximum at 30 μM; for EC50: human M4, PAM activity on EC20 acetylcholine response, calcium flux, read-out: Human M4 EC50. In short, it runs like this:
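Potentiation was taken as the concentration-dependent rise in the EC20 acetylcholine calcium response, fitted by a four-parameter logistic with EC20 as baseline. Fluo-4-loaded hM4-Gqi5 CHO-K1 cells received 11-point, threefold-diluted compound before acetylcholine at 144 s; FDSS read at 1 Hz.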

Bounds are passed on as bounds.

For `c1cnc2nc(NC3CCOC3)nc(N3CCc4ncc(N5CCCn6nccc65)cc4C3)c2c1` (stereo not drawn) [Compound 245, 4-(3-(6,7-dihydropyrazolo[1,5-a]pyrimidin-4(5H)-yl)-7,8-dihydro-1,6-naphthyridin-6(5H)-yl)-N-(tetrahydrofuran-3-yl)pyrido[2,3-d]pyrimidin-2-amine], the Emax (usually the size of the effect at its maximum, as opposed to the concentration needed) at 30 µM worked out at 80% and the EC50 (in general, the concentration needed to bring the measured effect to its halfway point) was 220 nM.

In the case of `FC(F)(F)c1ccc(-c2cnc3c(c2)CN(c2ncnc4ccc(Cl)cc24)CC3)cn1` [Compound 44, 6-chloro-4-[3-[6-(trifluoromethyl)-3-pyridyl]-7,8-dihydro-5H-1,6-naphthyridin-6-yl]quinazoline], the Emax at 30 µM is 59% and the EC50 worked out at 470 nM.

Turning to `Cn1nc(C(F)(F)F)cc1-c1cnc2c(c1)CN(c1ncnc3ccc(F)cc13)CC2` [Compound 267, 6-fluoro-4-(3-(1-methyl-3-(trifluoromethyl)-1H-pyrazol-5-yl)-7,8-dihydro-1,6-naphthyridin-6(5H)-yl)quinazoline], the Emax at 30 µM was 81% and the EC50 is 200 nM.

For the molecule `COc1cc2c(N3CCc4ncc(C(F)(F)F)cc4C3)nc(Cl)nc2cc1F` [Compound 167, 2-chloro-7-fluoro-6-methoxy-4-[3-(trifluoromethyl)-7,8-dihydro-5H-1,6-naphthyridin-6-yl]quinazoline], the Emax at 30 µM came to 72% and the EC50 was 350 nM.

For `COc1ccc2ncnc(N3CCc4ncc(C(F)(F)F)cc4C3)c2c1` [Compound 139, 6-methoxy-4-[3-(trifluoromethyl)-7,8-dihydro-5H-1,6-naphthyridin-6-yl]quinazoline], the maximal response (Emax) at 30 µM was 97% and the EC50 is 200 nM.

`Cc1nc(N2CCc3ncc(C(F)(F)F)cc3C2)c2cc(C3CC3)ccc2n1` [Compound 143, 6-cyclopropyl-2-methyl-4-[3-(trifluoromethyl)-7,8-dihydro-5H-1,6-naphthyridin-6-yl]quinazoline]: the Emax at 30 µM was 77% and the EC50 was found to be 1420 nM.

Turning to `Fc1ccc2ncnc(N3CCc4ncc(Nc5cccnc5F)cc4C3)c2c1` [Compound 82, N-(2-fluoro-3-pyridyl)-6-(6-fluoroquinazolin-4-yl)-7,8-dihydro-5H-1,6-naphthyridin-3-amine], the Emax at 30 µM is 104% and the EC50 amounted to 70 nM.

Consider `Cc1cnn(C)c1-c1cnc2c(c1)CN(c1ncnc3cc(F)c(F)cc13)CC2` [Compound 270, 4-(3-(1,4-dimethyl-1H-pyrazol-5-yl)-7,8-dihydro-1,6-naphthyridin-6(5H)-yl)-6,7-difluoroquinazoline], for which the Emax at 30 µM turned out to be 86% and the EC50 worked out at 100 nM.

As to `Cc1ccc(Oc2cnc3c(c2)CN(c2ncnc4ccc(F)cc24)CC3)c(F)c1` [Compound 144, 6-fluoro-4-[3-(2-fluoro-4-methyl-phenoxy)-7,8-dihydro-5H-1,6-naphthyridin-6-yl]quinazoline], the Emax at 30 µM amounted to 74% and the EC50 is 1890 nM.

Consider `CC1CN(c2ncnc3cc(F)c(F)cc23)Cc2cc(N3CCOCC3)cnc21` (stereo not drawn) [Compound 252, 4-(6-(6,7-difluoroquinazolin-4-yl)-8-methyl-5,6,7,8-tetrahydro-1,6-naphthyridin-3-yl)morpholine], for which the Emax at 30 µM worked out at 90% and the EC50 amounted to 150 nM.

`Fc1cc2ncnc(N3CCc4ncc(N5CCOc6ncccc65)cc4C3)c2cc1F` [Compound 98, 1-[6-(6,7-difluoroquinazolin-4-yl)-7,8-dihydro-5H-1,6-naphthyridin-3-yl]-2,3-dihydropyrido[2,3-b][1,4]oxazine]: the Emax at 30 µM turned out to be 97% and the EC50 was 30 nM.

As for `Cc1ncc(-c2cnc3c(c2)CN(c2nc(Cl)nc4ncccc24)CC3)s1` [Compound 35, 5-[6-(2-chloropyrido[2,3-d]pyrimidin-4-yl)-7,8-dihydro-5H-1,6-naphthyridin-3-yl]-2-methyl-thiazole], the Emax at 30 µM is 57% and the EC50 was 610 nM.

In the case of `[2H]c1nc(N2CCc3ncc(N4CCOc5ncccc54)cc3C2)c2cc(C)ccc2n1` [Compound 204, 1-[6-(2-deuterio-6-methyl-quinazolin-4-yl)-7,8-dihydro-5H-1,6-naphthyridin-3-yl]-2,3-dihydropyrido[2,3-b][1,4]oxazine], the Emax at 30 µM was found to be 93% and the EC50 turned out to be 80 nM.

`Fc1ccc2nc(Nc3ccccc3F)nc(N3CCc4ncc(C(F)(F)F)cc4C3)c2c1` [Compound 200, 6-fluoro-N-(2-fluorophenyl)-4-[3-(trifluoromethyl)-7,8-dihydro-5H-1,6-naphthyriidn-6-yl]quinazolin-2-amine]: the Emax at 30 µM turned out to be 63% and the EC50 was over 10000 nM.

In the case of `CC1CN(c2ncnc3ccc(F)cc23)Cc2cc(N3C(=O)COc4ccccc43)cnc21` (stereo not drawn) [Compound 251, 4-(6-(6-fluoroquinazolin-4-yl)-8-methyl-5,6,7,8-tetrahydro-1,6-naphthyridin-3-yl)-2H-benzo[b][1,4]oxazin-3(4H)-one], the Emax at 30 µM is 75% and the EC50 turned out to be 750 nM.

For `C[C@@H]1CN(c2cnc3c(c2)CN(c2ncnc4ccc(F)cc24)CC3)CCO1` [Compound 104, (2R)-4-[6-(6-fluoroquinazolin-4-yl)-7,8-dihydro-5H-1,6-naphthyridin-3-yl]-2-methyl-morpholine], the Emax at 30 µM came to 63% and the EC50 was determined as 70 nM.

For the molecule `Cc1ccc2nc(C3CC3)nc(N3CCc4ncc(-c5cnn(C6CC6)c5)cc4C3)c2c1` [Compound 175, 2-cyclopropyl-4-[3-(1-cyclopropylpyrazol-4-yl)-7,8-dihydro-5H-1,6-naphthyridin-6-yl]-6-methyl-quinazoline], the Emax at 30 µM was determined as 77% and the EC50 worked out at 560 nM.

For the molecule `Cc1nc(N2Cc3cc(C(F)(F)F)cnc3C(C)(C)C2)c2cc(F)ccc2n1` [Compound 118, 4-[8,8-dimethyl-3-(trifluoromethyl)-5,7-dihydro-1,6-naphthyridin-6-yl]-6-fluoro-2-methyl-quinazoline], the Emax at 30 µM worked out at 63% and the EC50 came out at 8390 nM.

Regarding `OC1(C2CC2)CN(c2nc(N3CCc4ncc(N5CCCn6nccc65)cc4C3)c3cccnc3n2)C1` [Compound 248, 3-cyclopropyl-1-(4-(3-(6,7-dihydropyrazolo[1,5-a]pyrimidin-4(5H)-yl)-7,8-dihydro-1,6-naphthyridin-6(5H)-yl)pyrido[2,3-d]pyrimidin-2-yl)azetidin-3-ol], the Emax at 30 µM was found to be 82% and the EC50 is 300 nM.

Consider `Cc1nc(N2CCc3ncc(C(F)(F)F)cc3C2)c2cc(F)ccc2n1` [Compound 130, 6-fluoro-2-methyl-4-[3-(trifluoromethyl)-7,8-dihydro-5H-1,6-naphthyridin-6-yl]quinazoline], for which the Emax at 30 µM turned out to be 86% and the EC50 was found to be 80 nM.

As to `Fc1ccc2nc(C3CC3)nc(N3CCc4ncc(N5CCCn6nccc65)cc4C3)c2c1` [Compound 194, 2-cyclopropyl-4-[3-(6,7-dihydro-5H-pyrazolo[1,5-a]pyrimidin-4-yl)-7,8-dihydro-5H-1,6-naphthyridin-6-yl]-6-fluoro-quinazoline], the Emax at 30 µM stood at 10% and the EC50 worked out at 230 nM.

In the case of `Cc1ccc2ncnc(N3CCc4ncc(N5CCOc6ncccc65)cc4C3)c2c1` [Compound 92, 1-[6-(6-methylquinazolin-4-yl)-7,8-dihydro-5H-1,6-naphthyridin-3-yl]-2,3-dihydropyrido[2,3-b][1,4]oxazine], the Emax at 30 µM was 122% and the EC50 turned out to be 120 nM.

Turning to `FC(F)(F)c1ccc2ncnc(N3CCc4ncc(N5CCOc6ncccc65)cc4C3)c2c1` [Compound 215, 1-(6-(6-(trifluoromethyl)quinazolin-4-yl)-5,6,7,8-tetrahydro-1,6-naphthyridin-3-yl)-2,3-dihydro-1H-pyrido[2,3-b][1,4]oxazine], the Emax at 30 µM amounted to 107% and the EC50 was found to be 1610 nM.

Consider `Fc1ccc2nc(N3CCOCC3)nc(N3CCc4ncc(C(F)(F)F)cc4C3)c2c1` [Compound 183, 4-[6-fluoro-4-[3-(trifluoromethyl)-7,8-dihydro-5H-1,6-naphthyridin-6-yl]quinazolin-2-yl]morpholine], for which the Emax at 30 µM is 71% and the EC50 stood at 260 nM.

Turning to `Cc1nc(N2CCc3ncc(-c4cnc(C)s4)cc3C2)c2cc(Cl)ccc2n1` [Compound 48, 5-[6-(6-chloro-2-methyl-quinazolin-4-yl)-7,8-dihydro-5H-1,6-naphthyridin-3-yl]-2-methyl-thiazole], the Emax at 30 µM was 92% and the EC50 is 270 nM.

Regarding `Fc1cc2ncnc(N3CCc4ncc(N5CCCn6ccnc65)cc4C3)c2cc1F` [Compound 277, 4-(3-(6,7-dihydroimidazo[1,2-a]pyrimidin-8(5H)-yl)-7,8-dihydro-1,6-naphthyridin-6(5H)-yl)-6,7-difluoroquinazoline], the Emax at 30 µM worked out at 67% and the EC50 was 2630 nM.

With `Cc1nc(N2CCc3ncc(N4CCOC(c5cccnc5)C4)cc3C2)c2cc(F)ccc2n1` (stereo not drawn) [Compound 230, 4-(6-(6-fluoro-2-methylquinazolin-4-yl)-5,6,7,8-tetrahydro-1,6-naphthyridin-3-yl)-2-(pyridin-3-yl)morpholine], the Emax at 30 µM worked out at 86% and the half-maximal effective concentration (EC50) came to 500 nM.
